Source: patent US9057090B2, “Method of identifying an agent for inhibiting odor of pyrazine derivatives” (Kao Corporation, priority 2012, dated 2015)

biological target: T1, olfactory receptor OR5K1 (Homo sapiens, UniProt Q8NHB7); assay: Luciferase reporter gene assay: response of olfactory receptor to pyrazine derivatives; type: cell-based; settings: 0, 3, 10, 30, 100, 300 and 1000 μM; HEK293 cells expressing OR5K1 with RTP1S variant; FIG. 2
T1 construct: expressed in transfected cells; host or cells: HEK293
T1 sequence (Q8NHB7 1-308): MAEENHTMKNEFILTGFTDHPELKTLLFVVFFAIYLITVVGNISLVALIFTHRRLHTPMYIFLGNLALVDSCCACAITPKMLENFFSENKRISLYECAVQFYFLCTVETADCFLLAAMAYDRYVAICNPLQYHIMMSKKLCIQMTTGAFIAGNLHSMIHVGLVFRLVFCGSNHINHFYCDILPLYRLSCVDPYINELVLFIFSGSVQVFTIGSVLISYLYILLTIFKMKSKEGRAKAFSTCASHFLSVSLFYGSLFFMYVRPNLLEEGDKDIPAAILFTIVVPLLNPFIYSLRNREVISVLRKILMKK
Method: HEK293 cells expressing 373 types of human olfactory receptors were produced. A reaction solution having a composition shown in Table 1 was prepared and left to stand in a clean bench for 15 min and then was dispensed in each well of a 96-well plate (Becton, Dickinson and Company). Subsequently, HEK293 cells (100 μL, 3×10^5 cells/cm^2) were seeded in each well and cultured in an incubator at 37° C. and 5% CO2 for 24 hr.
An olfactory receptor expressed in HEK293 cells couples with endogenous Gas in the cells to activate adenylate cyclase and thereby increases the amount of intracellular cAMP. In this study, the response of a pyrazine derivative was measured by luciferase reporter gene assay which monitors an increase in the amount of intracellular cAMP as the luminescence value derived from a firefly luciferase gene (fluc2P-CRE-hygro). A Renilla luciferase gene was fused downstream of a CMV promoter (hRluc-CMV) and was also introduced to HEK293 cells as an internal standard to correct errors in transgenic efficiency and number of cells.
The culture medium was removed from the culture produced in the above 3), and 75 μL of a solution prepared with a CD293 medium (Invitrogen Inc.) so as to contain a pyrazine derivative (1 mM 2,6-dimethylpyrazine) was added thereto. The cells were cultured in a CO2 incubator for 2.5 hr to sufficiently express the luciferase gene in the cells. The luciferase activity was measured with a Dual-Glo™ luciferase assay system (Promega Corporation) in accordance with the operating manual of the system. The fold increases were calculated by dividing the luminescence value derived from firefly luciferase induced by stimulation with a pyrazine derivative at each concentration by the luminescence value in cells not stimulated with the pyrazine derivative and were used as an index of response strength.
Olfactory receptor OR5K1 (SEQ ID NO: 2) was expressed in HEK293 cells together with an RTP1S variant (SEQ ID NO: 4) by the same procedure as in Example 1, and the dependency of the response on the concentration (0, 3, 10, 30, 100, 300, and 1000 μM) of various pyrazine compounds was investigated. The pyrazine compounds used in this Example were pyrazine and pyrazine derivatives selected from the group consisting of 2-methylpyrazine, 2,3-dimethylpyrazine, 2,5-dimethylpyrazine, 2,3,5-trimethylpyrazine, 2,3,5,6-tetramethylpyrazine and 2-ethylpyrazine.

Row | Compound | response of OR5K1, dependency on concentration
1 | c1cnccn1 [pyrazine] | did not respond
2 | Cc1nc(C)c(C)nc1C [2,3,5,6-tetramethylpyrazine] | responded in a dose-dependent manner
3 | CCc1cnccn1 [2-ethylpyrazine] | responded in a dose-dependent manner
4 | Cc1cnc(C)cn1 [2,5-dimethylpyrazine] | responded in a dose-dependent manner
5 | Cc1cnccn1 [2-methylpyrazine] | responded in a dose-dependent manner

biological target: T1, olfactory receptor OR5K1; assay: Antagonist assay: inhibition of OR5K1 response to 2,6-dimethylpyrazine (luciferase reporter); type: cell-based; settings: HEK293 cells expressing OR5K1; 2,6-dimethylpyrazine 1 mM + test substance 300 μM (cytotoxic flavoring agents re-evaluated at 333 μM + 100 μM); read-out: Inhibition rate (receptor response-inhibiting rate)
Method: The receptor response-inhibiting rate of a test substance was calculated as follows. The receptor activity (X−Y) by stimulation with 2,6-dimethylpyrazine alone was determined by subtracting the luminescence value (Y) in cells to which the receptor was introduced but were not stimulated with 2,6-dimethylpyrazine from the luminescence value (X) derived from firefly luciferase induced by stimulation with 2,6-dimethylpyrazine alone. Similarly, the receptor activity (Z−Y) in the presence of a test substance was determined by subtracting the luminescence value (Y) in cells not stimulated with 2,6-dimethylpyrazine from the luminescence value (Z) stimulated with a mixture of 2,6-dimethylpyrazine and the test substance. The reduction rate of the receptor activity (Z−Y) in the presence of a test substance to the receptor activity (X−Y) by stimulation with 2,6-dimethylpyrazine alone was calculated by the following computation expression: Inhibition rate (%)={1−(Z−Y)/(X−Y)}×100, to determine the receptor response-inhibiting rate of the test substance. In the measurement, multiple independent experiments were performed in duplicate, and the average of each experiment was used.

Row | Compound | inhibition at 300 µM
6 | CC(C=O)c1ccccc1 (stereo not drawn) [hydratropic aldehyde, 2-phenyl-propionaldehyde] | ≥ 50%
7 | CC(=O)O[C@]1(C)CC[C@@]23C[C@@H]1C(C)(C)[C@@H]2CC[C@H]3C [cedryl acetate] | ≥ 50%
8 | CCC(O)COC1CCCCC1C(C)(C)C (stereo not drawn) [Amber Core, 1-(2-tert-butylcyclohexyloxy)-2-butanol] | ≥ 75%
9 | CC(C=O)Cc1ccc(C(C)(C)C)cc1 (stereo not drawn) [lilial, α-methyl-β-(p-tert-butylphenyl)-propionaldehyde] | ≥ 50%
10 | CC(C)[C@H]1CC[C@@H](CO)CC1 [mayol, cis-4-isopropyl-cyclohexylmethanol] | ≥ 40%
11 | CC(C)=CCCC(C)=CC=O [citral, 3,7-dimethyl-2,6-octadienal] | ≥ 75%
12 | CCCCCC1=C(C)CCC1=O [dihydrojasmon, 2-pentyl-3-methyl-2-cyclopenten-1-one] | ≥ 40%
13 | CC=Cc1ccc(OCc2ccccc2)c(OC)c1 [benzyl isoeugenol, 2-methoxy-1-(phenylmethoxy)-4-(1-propenyl)-benzene] | ≥ 50%
14 | C=CCc1ccc(O)c(OC)c1 [eugenol, 1-allyl-3-methoxy-4-hydroxybenzene] | ≥ 40%
15 | O=CC=Cc1ccccc1 [cinnamaldehyde] | ≥ 50%
16 | CC(=O)c1c(C)c([N+](=O)[O-])c(C(C)(C)C)c([N+](=O)[O-])c1C [musk ketone, 4-tert-butyl-2,6-dimethyl-3,5-dinitro-acetophenone] | ≥ 40%
17 | CCC=C(C)C(O)CCCCC (stereo not drawn) [undecavertol, 4-methyl-3-decen-5-ol] | ≥ 75%
18 | C=C(OCC)C1C(C)(C)CC(=O)CC1(C)C [kephalis, 4-(1-ethoxyvinyl)-3,3,5,5-tetramethyl cyclohexanone] | ≥ 50%
19 | CC(=O)C1(C)CC2=C(CCCC2(C)C)CC1C (stereo not drawn) [Iso E Super, 7-acetyl-1,2,3,4,5,6,7,8-octahydro-1,1,6,7-tetramethyl-naphthalene] | ≥ 75%
20 | Cc1ccc(C(C)C)c(O)c1 [thymol, 5-methyl-2-(1-methylethyl)-phenol] | ≥ 75%
21 | O=C(OCCc1ccccc1)c1ccccc1O [phenylethyl salicylate] | ≥ 75%

Row | Compound | inhibition at 300 µM
22 | CC(=O)c1cc(C(C)(C)C)cc2c1C=CC2(C)C [celestolide, 6-tert-butyl-1,1-dimethylinden-4-yl methyl ketone] | ≥ 40%
23 | CC(C)=CCCC(C)CC=O (stereo not drawn) [citronellal, 3,7-dimethyl-6-octenal] | ≥ 50%
24 | CCCCCCOC(=O)c1ccccc1O [hexyl salicylate] | ≥ 40%
25 | CC(C=O)C1CCCCC1 (stereo not drawn) [Pollenal II, 2-cyclohexylpropanal] | ≥ 50%
26 | C=CCCC(=O)C1=CCCC(C)(C)C1 [Dynascone, 1-(5,5-dimethyl-1-cyclohexen-1-yl)-4-penten-1-one] | ≥ 40%
27 | CC(=CCC1CC=C(C)C1(C)C)CO (stereo not drawn) [Sandalmysore Core, 2-methyl-4-(2,2,3-trimethyl-3-cyclopenten-1-yl)-2-buten-1-ol] | ≥ 50%
28 | CC(=O)C1=C(C)C2CC3(C1)C(C)CCC3C2(C)C (stereo not drawn) [acetyl cedrene, 1-(2,3,4,7,8,8a-hexahydro-3,6,8,8-tetramethyl-1H-3a,7-methanoazulen-5-yl)-ethanone] | ≥ 50%
29 | CCC(=CCC1CC=C(C)C1(C)C)CO (stereo not drawn) [bacdanol, 2-ethyl-4-(2,2,3-trimethyl-3-cyclopenten-1-yl)-2-buten-1-ol] | ≥ 75%
30 | O=C1CCCCCCCCCCCC(=O)OCCO1 [ethylene brassylate, 1,4-dioxacyclo-heptadecane-5,17-dione] | ≥ 40%
31 | CC(=O)c1cc2c(cc1C)C(C)(C)C(C)CC2(C)C (stereo not drawn) [Tonalid, 1-(5,6,7,8-tetrahydro-3,5,5,6,8,8-hexamethyl-2-naphthalenyl)-ethanone] | ≥ 75%
32 | CC(C)=CCC/C(C)=C/CO [geraniol, (E)-3,7-dimethyl-2,6-octadien-1-ol] | ≥ 40%
33 | CC(C)=CCCC(C)CCOCC=O (stereo not drawn) [citronellyloxyacetaldehyde, 6,10-dimethyl-3-oxa-9-undecenal] | ≥ 40%
34 | CC(C)CCCC(C)CCO (stereo not drawn) [tetrahydrogeraniol, 3,7-dimethyl-1-octanol] | ≥ 50%
35 | CC1(C)CCCC2(C)C1CCC1(C)OCCC12 (stereo not drawn) [Ambrotech, dodecahydro-3a,6,6,9a-tetramethyl-naphtho[2,1-b]furan] | ≥ 50%
36 | CC=CC(=O)C1=C(C)C=CCC1(C)C [damascenone, 1-(2,6,6-trimethyl-1,3-cyclohexadien-1-yl)-2-buten-1-one] | ≥ 40%

test system: not listed separately; assay: Sensory test of reduction of the odor of 2,6-dimethylpyrazine in dough; settings: flavoring agent 0.5 μL added to dough 0.5 g containing 1% 2,6-dimethylpyrazine; four panelists; rating 1 to 5; FIG. 3
Method: A flavoring agent (0.5 μL) was added to dough (0.5 g) containing 2,6-dimethylpyrazine (1%, and the odor thereof was evaluated by comparing the strength of odor of 2,6-dimethylpyrazine in dough not applied with flavor by the flavoring agent. The sensory evaluation test was performed by four panelists. In the evaluation, a case where a strong odor of 2,6-dimethylpyrazine was smelled was rated as 1, and a case where the odor of 2,6-dimethylpyrazine was not smelled at all was rated as 5.

Row | Compound | odor of 2,6-dimethylpyrazine in sensory test
37 | CCCCCCCC1CCC(=O)O1 (stereo not drawn) [γ-undecalactone] | inhibited
38 | CCC(O)COC1CCCCC1C(C)(C)C (stereo not drawn) [Amber Core, 1-(2-tert-butylcyclohexyloxy)-2-butanol] | inhibited
39 | CC(C=O)Cc1ccc(C(C)(C)C)cc1 (stereo not drawn) [lilial, α-methyl-β-(p-tert-butylphenyl)-propionaldehyde] | inhibited
40 | CCC=C(C)C(O)CCCCC (stereo not drawn) [undecavertol, 4-methyl-3-decen-5-ol] | inhibited
41 | CC1=CC(C)C(C=O)CC1 (stereo not drawn) [triplal, 2,4-dimethyl-3-cyclohexene-1-carboxyaldehyde] | inhibited
42 | CC1C/C=C/CCCCCCCCCC(=O)C1 (stereo not drawn) [δ-muscenone, (5E)-3-methylcyclopenta-5-decen-1-one] | inhibited
43 | CC(=O)/C(C)=C/C1C(C)=CCCC1(C)C (stereo not drawn) [α-isomethyl ionone] | inhibited
44 | ethyl-(3aα,4α,7α,3aα)-octahydro-4,7-methano-3aH-indene-3a-carboxylate [Fruitate] | inhibited
45 | C=CCCC(=O)C1=CCCC(C)(C)C1 [Dynascone, 1-(5,5-dimethyl-1-cyclohexen-1-yl)-4-penten-1-one] | inhibited
46 | CC(C=O)Cc1ccc2c(c1)OCO2 (stereo not drawn) [helional, α-methyl-3,4-methylenedioxyhydrocinnamic aldehyde] | inhibited
47 | CC(=O)C=CC1=C(C)CCCC1(C)C [β-ionone, 4-(2,6,6-trimethyl-1-cyclohexen-1-yl)-3-buten-2-one] | inhibited
48 | CC(=CCC1CC=C(C)C1(C)C)CO (stereo not drawn) [Sandalmysore Core, 2-methyl-4-(2,2,3-trimethyl-3-cyclopenten-1-yl)-2-buten-1-ol] | inhibited
49 | CCCCCCC(C=O)=Cc1ccccc1 [α-hexylcinnamic aldehyde] | inhibited
50 | CC(=O)c1ccc2ccccc2c1 [β-methyl naphthyl ketone] | inhibited
51 | CC=CC(=O)C1=C(C)C=CCC1(C)C [damascenone, 1-(2,6,6-trimethyl-1,3-cyclohexadien-1-yl)-2-buten-1-one] | inhibited
